Source: ChEMBL document CHEMBL1687743, “Intravenous doripenem at 500 milligrams versus levofloxacin at 250 milligrams, with an option to switch to oral therapy, for treatment of complicated lower urinary tract infection and pyelonephritis” (Antimicrob Agents Chemother, 2009)

Key:
Homo sapiens [1] = test: Treatment emergent adverse event in intent-to-treat patient with complicated urinary tract infection assessed as constipation at 250 […], iv qd for 10 days; format: organism-based; parameters: route intravenous; settings: in vivo, 240 h
Escherichia coli [2] = test: Antibacterial activity against Escherichia coli infected in microbiologically evaluable patient with UTI assessed as cure rate at 250 mg, iv qd for 10 days measured at test-of-cure visit; format: functional
Klebsiella pneumoniae [3] = test: Antibacterial activity against Klebsiella pneumoniae isolated from patient with urinary tract infection receiving drug at 250 mg, iv qd for 10 days measured after post drug therapy; format: functional; settings: Urine, 240 h
Escherichia coli [4] = test: Antibacterial activity against Escherichia coli isolated from patient with urinary tract infection receiving drug at 250 mg, iv qd for 10 days measured after post drug therapy; format: functional; settings: Urine, 240 h
Homo sapiens [5] = test: Treatment emergent adverse event in intent-to-treat patient with complicated urinary tract infection assessed as back pain at 250 […], iv qd for 10 days; format: organism-based; parameters: route intravenous; settings: in vivo, 240 h
Homo sapiens [6] = test: Treatment emergent adverse event in intent-to-treat patient with complicated urinary tract infection assessed as urinary tract infection at 250 […], iv qd for 10 days; format: ADME, organism-based; parameters: route intravenous; settings: in vivo, 240 h
Escherichia coli [7] = test: Antibacterial activity against levofloxacin-resistant Escherichia coli infected in microbiologically evaluable patient with UTI assessed as cure rate at 250 mg, iv qd for 10 days measured at test-of-cure visit; format: functional
Homo sapiens [8] = test: Drug related treatment emergent adverse event in intent-to-treat patient with complicated urinary tract infection assessed as >=1 adverse event at 250 […], iv qd for 10 days; format: toxicity, organism-based; parameters: dose 250 mg/kg, route intravenous; settings: in vivo, 240 h
Homo sapiens [9] = test: Drug related treatment emergent adverse event in intent-to-treat patient with complicated urinary tract infection assessed as diarrhea at 250 […], iv qd for 10 days; format: toxicity, organism-based; parameters: dose 250 […], route intravenous; settings: in vivo, 240 h
Escherichia coli [10] = test: Antibacterial activity against levofloxacin-resistant Escherichia coli infected in clinically evaluable patient with UTI assessed as cure rate at 250 mg, iv qd for 10 days measured at test-of-cure visit; format: functional
Homo sapiens [11] = test: Drug related treatment emergent adverse event in intent-to-treat patient with complicated urinary tract infection assessed as nausea at 250 […], iv qd for 10 days; format: toxicity, organism-based, Urine; parameters: dose 250 […], route intravenous; settings: in vivo, 240 h
Homo sapiens [12] = test: Treatment emergent adverse event in intent-to-treat patient with complicated urinary tract infection assessed as phlebitis at 250 […], iv qd for 10 days; format: organism-based; parameters: route intravenous; settings: in vivo, 240 h
Enterococcus faecalis = test: Antibacterial activity against levofloxacin-resistant Enterococcus faecalis
Pseudomonas aeruginosa [13] = test: Antibacterial activity against Pseudomonas aeruginosa isolated from patient with urinary tract infection receiving drug at 250 mg, iv qd for 10 days measured after post drug therapy; format: functional; settings: Urine, 240 h
Homo sapiens [14] = test: Treatment emergent adverse event in intent-to-treat patient with complicated urinary tract infection assessed as insomnia at 250 […], iv qd for 10 days; format: ADME, organism-based, Urine; parameters: route intravenous; settings: in vivo, 240 h
Homo sapiens [15] = test: Treatment emergent adverse event in intent-to-treat patient with complicated urinary tract infection assessed as diarrhea at 250 […], iv qd for 10 days; format: organism-based; parameters: route intravenous; settings: in vivo, 240 h
Homo sapiens [16] = test: Drug related treatment emergent adverse event in intent-to-treat patient with complicated urinary tract infection assessed as phlebitis at 250 […], iv qd for 10 days; format: toxicity, organism-based, Urine; parameters: dose 250 […], route intravenous; settings: in vivo, 240 h
Homo sapiens [17] = test: Drug related treatment emergent adverse event in intent-to-treat patient with complicated urinary tract infection assessed as headache at 250 […], iv qd for 10 days; format: toxicity, organism-based, Urine; parameters: dose 250 […], route intravenous; settings: in vivo, 240 h
Klebsiella pneumoniae [18] = test: Antibacterial activity against Klebsiella pneumoniae infected in microbiologically evaluable patient with UTI assessed as cure rate at 250 mg, iv qd for 10 days measured at test-of-cure visit; format: functional
Homo sapiens [19] = test: Drug related treatment emergent adverse event in intent-to-treat patient with complicated urinary tract infection assessed as upper abdominal pain at 250 […], iv qd for 10 days; format: toxicity, organism-based; parameters: dose 250 […], route intravenous; settings: in vivo, 240 h
Homo sapiens [20] = test: Treatment emergent adverse event in intent-to-treat patient with complicated urinary tract infection assessed as asymptomatic bacteriuria at 250 […], iv qd for 10 days; format: organism-based, Urine; parameters: route intravenous; settings: in vivo, 240 h
Proteus mirabilis [21] = test: Antibacterial activity against levofloxacin-resistant Proteus mirabilis; format: functional
Homo sapiens [22] = test: Treatment emergent adverse event in intent-to-treat patient with complicated urinary tract infection assessed as headache at 250 […], iv qd for 10 days; format: ADME, organism-based, Urine; parameters: route intravenous; settings: in vivo, 240 h
Homo sapiens [23] = test: Treatment emergent adverse event in intent-to-treat patient with complicated urinary tract infection assessed as vomiting at 250 […], iv qd for 10 days; format: ADME, organism-based, Urine; parameters: route intravenous; settings: in vivo, 240 h
Homo sapiens [24] = test: Treatment emergent adverse event in intent-to-treat patient with complicated urinary tract infection assessed as abdominal pain at 250 […], iv qd for 10 days; format: organism-based; parameters: route intravenous; settings: in vivo, 240 h
Homo sapiens [25] = test: Treatment emergent adverse event in intent-to-treat patient with complicated urinary tract infection assessed as upper abdominal pain at 250 […], iv qd for 10 days; format: ADME, organism-based, Urine; parameters: route intravenous; settings: in vivo, 240 h
Homo sapiens [26] = test: Treatment emergent adverse event in intent-to-treat patient with complicated urinary tract infection assessed as >=1 adverse event at 250 […], iv qd for 10 days; format: organism-based, Urine; parameters: dose 250 mg/kg, route intravenous; settings: in vivo, 240 h
Escherichia coli [27] = test: Antibacterial activity against levofloxacin-resistant Escherichia coli; format: functional
Pseudomonas aeruginosa [28] = test: Antibacterial activity against levofloxacin-resistant Pseudomonas aeruginosa
Proteus mirabilis [29] = test: Antibacterial activity against Proteus mirabilis infected in microbiologically evaluable patient with UTI assessed as cure rate at 250 mg, iv qd for 10 days measured at test-of-cure visit; format: functional
Homo sapiens [30] = test: Treatment emergent adverse event in intent-to-treat patient with complicated urinary tract infection assessed as nausea at 250 […], iv qd for 10 days; format: ADME, organism-based, Urine; parameters: route intravenous; settings: in vivo, 240 h
Homo sapiens [31] = test: Treatment emergent adverse event in intent-to-treat patient with complicated urinary tract infection assessed as hypokalemia at 250 […], iv qd for 10 days; format: ADME, organism-based, Urine; parameters: route intravenous; settings: in vivo, 240 h
Proteus mirabilis [32] = test: Antibacterial activity against Proteus mirabilis isolated from patient with urinary tract infection receiving drug at 250 mg, iv qd for 10 days measured after post drug therapy; format: functional; settings: Urine, 240 h

Q: How did the Activity (Homo sapiens [1]) turn out when `C[C@H]1COc2c(N3CCN(C)CC3)c(F)cc3c(=O)c(C(=O)O)cn1c23.C[C@H]1COc2c(N3CCN(C)CC3)c(F)cc3c(=O)c(C(=O)O)cn1c23.O` [LEVOFLOXACIN] was run?
A: The Activity was 4.8%.

Q: What about the Activity (Escherichia coli [2]) of the same compound?
A: Its Activity is 87.2%.

Q: What about the MIC (Klebsiella pneumoniae [3]) of the same compound?
A: Its MIC is 2 µg/mL.

Q: What about the MIC (Escherichia coli [4]) of the same compound?
A: Its MIC is 0.25 µg/mL.

Q: And the Activity (Homo sapiens [5])?
A: The Activity was 4.6%.

Q: And the Activity (Homo sapiens [6])?
A: Its Activity is 1.6%.

Q: What about the Activity (Escherichia coli [7]) of the same compound?
A: Its Activity is 29%.

Q: And the Activity (Homo sapiens [8])?
A: Its Activity is 25%.

Q: What about the Activity (Homo sapiens [9]) of the same compound?
A: Its Activity is 5.9%.

Q: What about the Activity (Escherichia coli [10]) of the same compound?
A: The Activity was 33%.

Q: What about the Activity (Homo sapiens [11]) of the same compound?
A: The Activity was 1.6%.

Q: What about the Activity (Homo sapiens [12]) of the same compound?
A: Its Activity is 4%.

Q: And the MIC (Enterococcus faecalis)?
A: Its MIC is 16 µg/mL.

Q: What about the MIC (Pseudomonas aeruginosa [13]) of the same compound?
A: The MIC was 0.25 µg/mL.

Q: What about the Activity (Homo sapiens [14]) of the same compound?
A: Its Activity is 3%.

Q: And the Activity (Homo sapiens [15])?
A: The Activity was 9.9%.

Q: What about the Activity (Homo sapiens [16]) of the same compound?
A: Its Activity is 3%.

Q: And the Activity (Homo sapiens [17])?
A: Its Activity is 2.7%.

Q: What about the Activity (Klebsiella pneumoniae [18]) of the same compound?
A: The Activity was 62.5%.

Q: And the Activity (Homo sapiens [19])?
A: The Activity was 2.2%.

Q: And the Activity (Homo sapiens [20])?
A: The Activity was 1.1%.

Q: And the MIC (Proteus mirabilis [21])?
A: The MIC was 32 µg/mL.

Q: What about the Activity (Homo sapiens [22]) of the same compound?
A: Its Activity is 14.5%.

Q: What about the Activity (Homo sapiens [23]) of the same compound?
A: Its Activity is 4.3%.

Q: And the Activity (Homo sapiens [24])?
A: Its Activity is 3.5%.

Q: And the Activity (Homo sapiens [25])?
A: Its Activity is 3.5%.

Q: What about the Activity (Homo sapiens [26]) of the same compound?
A: The Activity was 60%.

Q: And the MIC (Escherichia coli [27])?
A: The MIC was 32 µg/mL.

Q: What about the MIC (Pseudomonas aeruginosa [28]) of the same compound?
A: Its MIC is 32 µg/mL.

Q: What about the Activity (Proteus mirabilis [29]) of the same compound?
A: Its Activity is 86.7%.

Q: And the Activity (Homo sapiens [30])?
A: Its Activity is 5.9%.

Q: And the Activity (Homo sapiens [31])?
A: The Activity was 3.5%.

Q: And the MIC (Proteus mirabilis [32])?
A: Its MIC is 0.25 µg/mL.
